Experimental data taken from patent US7935729B2, “Use of triglyceride oils containing γ-linolenic acid residues and linoleic acid residues for the treatment of neurodegenerative disease” (BTG International Limited, priority 2003, dated 2011).
Entries after “also recorded” stand apart in the source; their conditions may differ. Marks after values point to notes of the source that are not given here.

Legend:
EAE [1] = settings: depending on dose (Harbige et al); cited from earlier work
[2] = system: multiple sclerosis patients; settings: about 20 g/day; cited from earlier work
EAE [3] = settings: guinea-pig (Meade et al 1978); cited from earlier work
[4] = system: MOG-induced CREAE in SJL Mice; test: MOG-induced CREAE in SJL mice, molecular species comparison of GLA; assay type: in vivo; settings: for Mean Clinical Score / No. with EAE: 100 μl of test lipid
Excerpt: γ-Linolenic acid (18:3n -6, GLA) is known to be rapidly converted to longer-chain omega-6 polyunsaturated fatty acids dihomo-γ-linolenic acid and arachidonic acid in vivo (Phylactos et al 1994, Harbige et al 1995, 2000). Therefore to increase the level of membrane long chain omega-6 fatty acids in MS the inventors have reviewed results obtained with several GLA-containing oils:- both fungal (from Mucor javanicus) and plant (Borago officianalis), Evening primrose Oenothera spp. or Blackcurrant Ribes spp) as well as a synthetic tri-GLA oil as GLA delivery systems in an in vivo experimental animal model of MS known as chronic relapsing experimental autoimmune encephalomyelitis (CREAE).
Experimental autoimmune encephalomyelitis (EAE) is an autoimmune inflammatory disease of the CNS, with or without demyelination, inducible in rodents and other mammalian species. […] Chronic relapsing and demyelinating EAE models (CREAE), which are characterised by demyelination and relapse phases, are therefore currently the animal models of choice for MS research (Fazakerley 1997).

Row | SMILES | Protection in acute rat EAE (EAE [1]) | Duration and severity of relapses of multiple sclerosis [2] | Incidence and severity of EAE (EAE [3]) | Mean Clinical Score [4] | No. with EAE [4] | Protective effect in CREAE (in words) ([4]; compared with borage oil)
1 | CCCCC/C=C\C/C=C\C/C=C\CCCCC(=O)O [γ-linolenic acid] | fully protective | – | – | – | – | –
2 | CCCCC/C=C\C/C=C\CCCCCCCC(=O)O [linoleic acid] | dose-dependent action on the clinical severity but did not abolish it | relapses were less frequent, less severe and of shorter duration than controls | partially suppresses the incidence and severity of EAE | – | – | –
3 | CCCCC/C=C\C/C=C\C/C=C\CCCCC(=O)OCC(COC(=O)CCCC/C=C\C/C=C\C/C=C\CCCCC)OC(=O)CCCC/C=C\C/C=C\C/C=C\CCCCC [TG-GLA, Triacylglycerol-GLA] | – | – | – | 1.0 ± 1.3^c | 3/6 | protective effects similar to that of the borage oil; also recorded: effective at a lower dose level than the borage oil
4 | CCCCC/C=C\C/C=C\C/C=C\CCCCC(=O)OCC [EE-GLA, Ethyl-Ester-GLA] | – | – | – | 3.0 ± 0.8 | 5/6 | –
